For the experiment, the system named is TEAD responsive promoter element (8XGTIIC-Luciferase; YAP1-TEAD and TAZ-TEAD activity). Put plainly: TEAD-Luciferase reporter assay. Format: cell-based. The following applies: Homo sapiens; luciferase activity in tumor cell lines with stable integration of the 8XGTIIC-Luciferase construct; 10 doses between 1 and 10000 nM, 48 hrs. The source says: TEAD-Luciferase Reporter Assay
Luciferase-based gene reporter assays were used, employing the TEAD responsive promoter element that are stably integrated to different human tumor cell lines in order to monitor YAP1-TEAD and TAZ-TEAD activity and to study YAP1/TAZ-TEAD activity modulation by small molecule compounds. Luciferase-based gene reporter assays employing the GAPDH promoter element and stably integrated to different human tumor cell lines are used as counter screen control cell lines.
Tumor cell lines with stable integration of the 8XGTIIC-Luciferase construct (Dupont et al., Nature 2011) or the GAPDH-Luciferase control plasmid, are seeded in culture medium in 96-well plates at a density of 8000 cells/well. Following an overnight incubation in a 37° C., 5% CO2 growth chamber, cells are treated with compounds described above at 10 doses ranging between 1 and 10000 nM for 48 hrs. After compound incubation, cells are lysed with Bright-Glo Luciferase Assay System (Promega E2620) and luciferase activity is measured using a luminescent plate reader.
The inhibitory activity of the compounds with respect to luciferase activity is given by the concentration which inhibits 50% of activity of non-treated cells. IC50s are determined with a nonlinear regression model on XLfit software analysis (IDBS, UK).
`C=CC(=O)Nc1ccc2c(ccn2CCN(C)CC(F)(F)F)c1` [Example 36, N-(1-(2-(methyl(2,2,2-trifluoroethyl)amino)ethyl)-1H-indol-5-yl)acrylamide] yielded an IC50 of 4560 nM. Consider `C=CC(=O)Nc1ccc2c(ccn2CC2CCCCC2)c1` [Example 27, N-(1-(cyclohexylmethyl)-1H-indol-5-yl)acrylamide], for which the IC50 is at least 10000 nM.

On to `C=CC(=O)Nc1ccc2c(ccn2Cc2cccc(OC)c2)c1` [Example 12, N-(1-(3-methoxybenzyl)-1H-indol-5-yl)acrylamide], for which the IC50 was 241 nM. Compound `C=CC(=O)Nc1ccc2c(ccn2Cc2ccc(OC(F)(F)F)cc2)c1` [Example 7, N-(1-(4-(trifluoromethoxy)benzyl)-1H-indol-5-yl)acrylamide] had an IC50 of at least 10000 nM. Turning to `C=CC(=O)Nc1ccc2c(c1)c(C)c(C)n2Cc1cccc(C(F)(F)F)c1` [Example 16, N-(2,3-dimethyl-1-(3-(trifluoromethyl)benzyl)-1H-indol-5-yl)acrylamide], the IC50 stood at 31 nM. As to `C=CC(=O)Nc1cc2ccn(-c3ccc(C(F)(F)F)cc3)c2cc1Cl` [Example 77, N-(6-chloro-1-(4-(trifluoromethyl)phenyl)-1H-indol-5-yl)acrylamide], the IC50 came out at 534 nM. On to `C=CC(=O)Nc1cc(Cl)c2c(ccn2Cc2cccc(C(F)(F)F)c2)c1` [Example 79, N-(7-chloro-1-(3-(trifluoromethyl)benzyl)-1H-indol-5-yl)acrylamide], for which the midpoint of inhibition, the IC50, lay at 85 nM. This IC50 is about 6.3-fold lower than that of the compound before. Compound `C=CC(=O)Nc1ccc2c(ccn2CC2CC(C(F)(F)F)C2)c1` (centres unmarked) [Example 28, N-(1-((3-(trifluoromethyl)cyclobutyl)methyl)-1H-indol-5-yl)acrylamide] had an IC50 of at least 10000 nM.

(Values after patent publication US12692230B2, “(1 h-indol-5-yl)acrylamide derivatives as inhibitors of TEAD proteins and the hippo-YAP1/TAZ signaling cascade for the treatment of cancer” (Sanofi, priority 2020, dated 2026).)
